Test results reported in patent US20220380378A1 (ESSA Pharma, Inc., priority 2021, published 2022).

Experiments:
[1] = Microsomal stability assay, liver microsome half-life (mouse); type: in vitro ADME; details: pH 7.4; mouse liver microsomes 0.5 mg/mL, 1 μM compound, 37° C.; read-out: Liver microsome T1/2 Mouse
Excerpt: (§1) Microsomal Stability Assay: Microsomal stability assay is a widely used in vitro model to characterize the metabolic conversion by phase I enzymes, such as cytochrome P450 (CYP) enzymes. Since metabolism is known to be highly variable in different species, microsomal stability assay is commonly run in multiple species. Metabolic stability of testing compound can be evaluated using human, rat, mouse, or other animal liver or intestine microsomes to predict intrinsic clearance.
(§2) The assay was carried out in 96-well microtiter plates at 37° C. Reaction mixtures (25 μL) contained a final concentration of 1 μM test compound, 0.5 mg/mL liver microsomes protein, and 1 mM NADPH and/or 1 mM UDPGA (with alamethicin) in 100 mM potassium phosphate, pH 7.4 buffer with 3 mM MgCl2. The incubation was done with N=1, but duplicate incubation at each time point can be prepared if necessary. At each of the time points (for example, 0, 15, 30, and 60 minutes), 150 μL of quench solution (100% acetonitrile with 0.1% formic acid) with internal standard was transferred to each well. Besides the zero minute controls, mixtures containing the same components except the NADPH can also be prepared as the negative control. Verapamil was included as a positive control to verify assay performance. Plates were sealed, vortexed, and centrifuged at 4° C. for 15 minutes at 4000 rpm. The supernatant is transferred to fresh plates for LC/MS/MS analysis.
(§3) Summarized conditions: [Compound]=1 μM, [LM]=0.5 mg/mL, [NADPH]=1 mM and/or [UDPGA]=1 mM, Buffer=100 mM Potassium Phosphate, pH 7.4 with 3 mM MgCl2, Time=0, 15, 30, and 60 min, and Temperature=37° C.
(§4) All samples were analyzed on LC/MS/MS using an AB Sciex API 4000 instrument, coupled to a Shimadzu LC-20AD LC Pump system. Analytical samples were separated using a Waters Atlantis T3 dC18 reverse phase HPLC column (20 mm×2.1 mm) at a flow rate of 0.5 mL/min. The mobile phase consisted of 0.1% formic acid in water (solvent A) and 0.1% formic acid in 100% acetonitrile (solvent B).
(§5) The extent of metabolism is calculated as the disappearance of the test compound, compared to the 0-min time incubation. Initial rates are calculated for the compound concentration and used to determine half-life (t½). […]

[2] = Microsomal stability assay, liver microsome half-life (monkey); type: in vitro ADME; details: pH 7.4; monkey liver microsomes 0.5 mg/mL, 1 μM compound, 37° C.; read-out: Liver microsome T1/2 Monkey
Excerpt: as §1, §2, §3, §4
(§6) The extent of metabolism is calculated as the disappearance of the test compound, compared to the 0-min time incubation. Initial rates are calculated for the compound concentration and used to determine half-life (t½).

[3] = Microsomal stability assay, liver microsome half-life (rat); type: in vitro ADME; details: pH 7.4; rat liver microsomes 0.5 mg/mL, 1 μM compound, 37° C.; read-out: Liver microsome T1/2 Rat
Excerpt: as §1, §2, §3, §4, §5

[4] = target: T1, androgen receptor (AR) (Homo sapiens, UniProt P10275, T878A); experiment: Androgen-induced PSA (6.1 kb)-luciferase reporter assay in LNCaP cells (R1881 1 nM); type: cell-based; set-up: endogenous in cells; host or cells: LNCaP; details: 24 h, read-out: PSA-Luc IC50 Range
T1 sequence (P10275 1-920 T878A): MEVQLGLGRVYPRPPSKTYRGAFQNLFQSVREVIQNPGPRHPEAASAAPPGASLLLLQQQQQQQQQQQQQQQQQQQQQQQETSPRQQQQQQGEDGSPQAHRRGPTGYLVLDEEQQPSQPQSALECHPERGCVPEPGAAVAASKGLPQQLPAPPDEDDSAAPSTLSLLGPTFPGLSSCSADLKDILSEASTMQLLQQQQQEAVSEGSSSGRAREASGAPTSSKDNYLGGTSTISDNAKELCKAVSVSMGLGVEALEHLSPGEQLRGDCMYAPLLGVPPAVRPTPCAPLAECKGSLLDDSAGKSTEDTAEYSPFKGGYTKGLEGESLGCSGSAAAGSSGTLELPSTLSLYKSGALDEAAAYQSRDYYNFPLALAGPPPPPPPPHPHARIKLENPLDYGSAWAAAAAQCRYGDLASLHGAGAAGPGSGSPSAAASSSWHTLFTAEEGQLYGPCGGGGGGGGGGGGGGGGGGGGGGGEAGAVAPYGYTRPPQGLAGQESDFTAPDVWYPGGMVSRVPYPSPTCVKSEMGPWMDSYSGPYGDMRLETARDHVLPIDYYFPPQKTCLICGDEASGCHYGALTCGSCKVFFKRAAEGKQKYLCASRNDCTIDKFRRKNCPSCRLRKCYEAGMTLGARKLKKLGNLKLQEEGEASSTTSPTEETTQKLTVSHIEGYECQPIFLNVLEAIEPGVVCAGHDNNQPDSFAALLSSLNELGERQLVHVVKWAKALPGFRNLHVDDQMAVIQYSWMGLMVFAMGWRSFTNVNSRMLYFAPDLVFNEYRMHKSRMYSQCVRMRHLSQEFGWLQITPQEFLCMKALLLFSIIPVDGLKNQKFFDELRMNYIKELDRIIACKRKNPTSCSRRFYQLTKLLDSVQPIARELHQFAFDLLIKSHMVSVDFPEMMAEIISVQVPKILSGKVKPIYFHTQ
In short: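 LNCaP cells transiently transfected with PSA (6.1 kb)-luciferase for 24 h, pretreated 1 h with compound or DMSO, then stimulated with 1 nM R1881 for 24 h. Firefly luciferase in lysates normalized to protein content; IC50 relative to R1881-induced vehicle activity.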

[5] = Microsomal stability assay, liver microsome half-life (human); type: in vitro ADME; details: pH 7.4; human liver microsomes 0.5 mg/mL, 1 μM compound, 37° C.; read-out: Liver microsome T1/2 Human
Excerpt: as §1, §2, §3, §4, §5

[6] = Microsomal stability assay, liver microsome half-life (dog); type: in vitro ADME; details: pH 7.4; dog liver microsomes 0.5 mg/mL, 1 μM compound, 37° C.; read-out: Liver microsome T1/2 Dog
Excerpt: as §1, §2, §3, §4, §6

SMILES	half-life at 1 μM [1]	half-life at 1 μM [2]	half-life at 1 μM [3]	IC50 [4]	half-life at 1 μM [5]	half-life at 1 μM [6]
CS(=O)(=O)NC12CC(COc3ccc4c(ccn4-c4cc(Cl)c(OCCCl)c(C#N)c4)c3)(C1)C2 [Compound A57, N-(3-(((1-(3-chloro-4-(2-chloroethoxy)-5-cyanophenyl)-1H-indol-5-yl)oxy)methyl)bicyclo[1.1.1]pentan-1-yl)methanesulfonamide]	> 2 h	1.13 h	> 2 h	< 0.5 µM	1.15 h	> 2 h
CS(=O)(=O)Nc1nccc(COCCc2cc(Cl)c(OCCCl)c(C#N)c2)n1 [Compound A5]	–	–	–	> 2 µM	0.93 h	–
CS(=O)(=O)Nc1nccc(COc2nnc(-c3cc(Cl)c(OCCCl)c(C#N)c3)o2)n1 [Compound A37, N-(4-(((5-(3-chloro-4-(2-chloroethoxy)-5-cyanophenyl)-1,3,4-oxadiazol-2-yl)oxy)methyl)pyrimidin-2-yl)methanesulfonamide]	–	–	–	0.5 to 2 µM	> 2 h	–
CC(C)(c1ccc(OCc2ccnc(NS(C)(=O)=O)n2)cc1)c1cc(Cl)c2c(c1)OCCO2 [Compound A38]	–	–	–	> 2 µM	> 2 h	–
CC(C)(c1ccc(OCc2cnc(NS(C)(=O)=O)nc2N2CCOCC2)cc1)c1cc(Cl)c(OCCCl)c(C#N)c1 [Compound A100]	1.6 h	0.633 h	0.85 h	< 0.5 µM	> 2 h	> 2 h
CS(=O)(=O)Nc1nccc(COc2ccc3c(c2)CCCC3c2cc(Cl)c(OCCCl)c(C#N)c2)n1 (stereo not drawn) [Compound A33, N-(4-(((5-(3-chloro-4-(2-chloroethoxy)-5-cyanophenyl)-5,6,7,8-tetrahydronaphthalen-2-yl)oxy)methyl)pyrimidin-2-yl)methanesulfonamide]	> 2 h	–	–	0.5 to 2 µM	> 2 h	–
CS(=O)(=O)Nc1nccc(OCC23CC(C(=O)c4ccc(OCCCl)cc4)(C2)C3)n1 [Compound A7]	–	–	–	> 2 µM	1.4 h	–
CS(=O)(=O)Nc1nccc(OCC23CC(C(=O)c4cc(Cl)c(OCCCl)c(C#N)c4)(C2)C3)n1 [Compound A8]	–	–	–	> 2 µM	0.161 h	–
CS(=O)(=O)Nc1nccc(OC2CCN(C(=O)c3cc(Cl)c(OCCCl)c(C#N)c3)CC2)n1 [Compound A6, N-(4-((1-(3-chloro-4-(2-chloroethoxy)-5-cyanobenzoyl)piperidin-4-yl)oxy)pyrimidin-2-yl)methanesulfonamide]	–	–	–	> 2 µM	> 2 h	–
CS(=O)(=O)Nc1nccc(COc2nnc(-c3cc(Cl)c(OCCCl)c(C#N)c3)s2)n1 [Compound A41]	> 2 h	–	–	> 2 µM	> 2 h	–
CS(=O)(=O)Nc1nccc(COc2ccc3c(-c4cc(Cl)c(OCCCl)c(C#N)c4)cccc3c2)n1 [Compound A34, N-(4-(((5-(3-chloro-4-(2-chloroethoxy)-5-cyanophenyl)naphthalen-2-yl)oxy)methyl)pyrimidin-2-yl)methanesulfonamide]	> 2 h	–	–	0.5 to 2 µM	> 2 h	–
CS(=O)(=O)Nc1nccc(COc2ccc3c(c2)CCC=C3c2cc(Cl)c(OCCCl)c(C#N)c2)n1 [Compound A32, N-(4-(((5-(3-chloro-4-(2-chloroethoxy)-5-cyanophenyl)-7,8-dihydronaphthalen-2-yl)oxy)methyl)pyrimidin-2-yl)methanesulfonamide]	> 2 h	–	–	0.5 to 2 µM	1.14 h	–

The next lines start with the values.

half-life at 1 μM [1]	half-life at 1 μM [2]	half-life at 1 μM [3]	IC50 [4]	half-life at 1 μM [5]	half-life at 1 μM [6]	SMILES
> 2 h	0.95 h	1.62 h	0.5 to 2 µM	> 2 h	> 2 h	CC(C)(c1ccc(OCC23CC(NS(C)(=O)=O)(C2)C3)cc1)c1cc(Cl)c(OCCCl)c(C#N)c1 [Compound A132, N-(3-((4-(2-(3-chloro-4-(2-chloroethoxy)-5-cyanophenyl)propan-2-yl)phenoxy)methyl)bicyclo[1.1.1]pentan-1-yl)methanesulfonamide]
> 2 h	> 2 h	> 2 h	0.5 to 2 µM	> 2 h	> 2 h	CS(=O)(=O)Nc1ncc2cc(-c3ccc(Oc4cc(Cl)c(OCCCl)c(C#N)c4)cc3)ccc2n1 [Compound A116, N-(6-(4-(3-chloro-4-(2-chloroethoxy)-5-cyanophenoxy)phenyl)quinazolin-2-yl)methanesulfonamide]
–	–	–	–	> 2 h	–	CC(C)(c1ccc(OC[C@H](O)CNS(C)(=O)=O)cc1)c1cc(Cl)c(OC[C@H](O)CCl)c(Cl)c1 [X, reference compound]
> 2 h	> 2 h	> 2 h	< 0.5 µM	> 2 h	> 2 h	CC(C)(c1ccc(-c2ccc3nc(NS(C)(=O)=O)nc(N)c3c2)cc1)c1cc(Cl)c(OCCCl)c(C#N)c1 [Compound A173]
> 2 h	0.933 h	0.433 h	0.5 to 2 µM	> 2 h	0.833 h	CC(C)(c1ccc(-c2cnc3c(c2)CCC3NS(C)(=O)=O)cc1)c1cc(Cl)c(OCCCl)c(C#N)c1 (stereo not drawn) [Compound A217]
> 2 h	> 2 h	> 2 h	> 2 µM	> 2 h	> 2 h	CS(=O)(=O)NC1CCN(Cc2ccc3c(ccn3-c3cc(Cl)c(OCCCl)c(C#N)c3)c2)CC1 [Compound A169]
> 2 h	> 2 h	> 2 h	–	> 2 h	> 2 h	CNC(=O)c1ccc(N2C(=S)N(c3ccc(C#N)c(C(F)(F)F)c3)C(=O)C2(C)C)cc1F [Enzalutamide, enzalutamide, reference compound]
